Laboratory results from patent US8741897B2, “Glucocorticoid mimetics, methods of making them, pharmaceutical compositions and uses thereof” (Boehringer Ingelheim Pharmaceuticals Inc., priority 2003, dated 2014).

Test system: glucocorticoid receptor function
Assay: one or more of the above assays (GR binding and glucocorticoid receptor cell assays: aromatase, IL-6, TAT, MMTV-Luc, IL-8, ICAM-Luc)
Assay type: cell-based
Settings: assay not specified per compound

SMILES | activity as agonists of the glucocorticoid receptor function in one or more of the above assays
COc1ccc(F)cc1C(C)(C)CC(O)(Cn1ccc2c1CCCC2=O)C(F)(F)F (centres unmarked) [1-[4-(5-Fluoro-2-methoxyphenyl)-2-hydroxy-4-methyl-2-trifluoromethylpentyl]-1,5,6,7-tetrahydroindol-4-one] | agonists
Cc1ccc(F)cc1C(C)(C)CC(O)(Cn1ccc2c1CCCC2=O)C(F)(F)F (centres unmarked) [1-[4-(5-Fluoro-2-methylphenyl)-2-hydroxy-4-methyl-2-trifluoromethylpentyl]-1,5,6,7-tetrahydroindol-4-one] | agonists
CC(C)C(=O)c1ccc2[nH]c(CC(O)(CC(C)(C)c3cc(Cl)cc4c3OCC4)C(F)(F)F)cc2n1 (centres unmarked) [1-{2-[4-(5-Chloro-2,3-dihydrobenzofuran-7-yl)-2-hydroxy-4-methyl-2-trifluoromethylpentyl]-1H-pyrrolo[3,2-b]pyridin-5-yl}-2-methylpropan-1-one] | potent agonists
CC(=O)c1ccc2[nH]c(CC(O)(CC(C)(C)c3cc(Cl)cc4c3OCC4)C(F)(F)F)cc2n1 (centres unmarked) [1-{2-[4-(5-Chloro-2,3-dihydrobenzofuran-7-yl)-2-hydroxy-4-methyl-2-trifluoromethylpentyl]-1H-pyrrolo[3,2-b]pyridin-5-yl}ethanone] | potent agonists
CCC(=O)c1ccc2[nH]c(CC(O)(CC(C)(C)c3cc(Cl)cc4c3OCC4)C(F)(F)F)cc2n1 (centres unmarked) [1-{2-[4-(5-Chloro-2,3-dihydrobenzofuran-7-yl)-2-hydroxy-4-methyl-2-trifluoromethylpentyl]-1H-pyrrolo[3,2-b]pyridin-5-yl}propan-1-one] | potent agonists
COc1ccc(F)cc1C(C)(C)CC(O)(Cc1cc2ccncc2[nH]1)C1(F)CC1 (centres unmarked) [2-(1-Fluorocyclopropyl)-4-(5-fluoro-2-methoxyphenyl)-4-methyl-1-(1H-pyrrolo[2,3-c]pyridin-2-yl)pentan-2-ol] | agonists
CC(C)(CC(O)(Cc1[nH]c2ccccc2c1Br)C(F)(F)F)c1cccc(F)c1 (centres unmarked) [2-(3-Bromo-1H-indol-2-ylmethyl)-1,1,1-trifluoro-4-(3-fluorophenyl)-4-methylpentan-2-ol] | potent agonists
COc1ccc(F)cc1C(C)(C)CC(O)(Cc1[nH]c2ccncc2c1Cl)C(F)(F)F (centres unmarked) [2-(3-Chloro-1H-pyrrolo[3,2-c]pyridin-2-ylmethyl)-1,1,1-trifluoro-4-(5-fluoro-2-methoxyphenyl)-4-methylpentan-2-ol] | potent agonists
CCc1cccc2[nH]c(CC(O)(CC(C)(C)c3cc(F)ccc3OC)C(F)(F)F)cc12 (centres unmarked) [2-(4-Ethyl-1H-indol-2-ylmethyl)-1,1,1-trifluoro-4-(5-fluoro-2-methoxyphenyl)-4-methylpentan-2-ol] | potent agonists
CC(C)(CC(O)(Cc1cc2nc(CN)ccc2[nH]1)C(F)(F)F)c1cc(Cl)cc2c1OCC2 (centres unmarked) [2-(5-Aminomethyl-1H-pyrrolo[3,2-b]pyridin-2-ylmethyl)-4-(5-chloro-2,3-dihydrobenzofuran-7-yl)-1,1,1-trifluoro-4-methylpentan-2-ol] | potent agonists
CC(C)(CC(O)(Cc1cc2cc(Br)ccc2[nH]1)C(F)(F)F)c1cc(Cl)cc2c1OCC2 (centres unmarked) [2-(5-Bromo-1H-indol-2-ylmethyl)-4-(5-chloro-2,3-dihydrobenzofuran-7-yl)-1,1,1-trifluoro-4-methylpentan-2-ol] | potent agonists
COc1ccc(-c2cncnc2)cc1C(C)(C)CC(O)(Cc1cc2cc(Cl)ncc2[nH]1)C(F)(F)F (centres unmarked) [2-(5-Chloro-1H-pyrrolo[2,3-c]pyridin-2-ylmethyl)-1,1,1-trifluoro-4-(2-methoxy-5-pyrimidin-5-ylphenyl)-4-methylpentan-2-ol] | potent agonists
COc1ccc(-c2ccsc2)cc1C(C)(C)CC(O)(Cc1cc2cc(Cl)ncc2[nH]1)C(F)(F)F (centres unmarked) [2-(5-Chloro-1H-pyrrolo[2,3-c]pyridin-2-ylmethyl)-1,1,1-trifluoro-4-(2-methoxy-5-thiophen-3-ylphenyl)-4-methylpentan-2-ol] | potent agonists
CSc1cc2c(c(C(C)(C)CC(O)(Cc3cc4cc(Cl)ncc4[nH]3)C(F)(F)F)c1)OCC2 (centres unmarked) [2-(5-Chloro-1H-pyrrolo[2,3-c]pyridin-2-ylmethyl)-1,1,1-trifluoro-4-methyl-4-(5-methylsulfanyl-2,3-dihydrobenzofuran-7-yl)pentan-2-ol] | potent agonists
CCN(CC)c1cc2cc(CC(O)(CC(C)(C)c3cc(F)ccc3C)C(F)(F)F)[nH]c2cn1 (centres unmarked) [2-(5-Diethylamino-1H-pyrrolo[2,3-c]pyridin-2-ylmethyl)-1,1,1-trifluoro-4-(5-fluoro-2-methylphenyl)-4-methylpentan-2-ol] | potent agonists
COc1ccc(-c2cncnc2)cc1C(C)(C)CC(O)(Cc1cc2cc(N(C)C)ncc2[nH]1)C(F)(F)F (centres unmarked) [2-(5-Dimethylamino-1H-pyrrolo[2,3-c]pyridin-2-ylmethyl)-1,1,1-trifluoro-4-(2-methoxy-5-pyrimidin-5-ylphenyl)-4-methylpentan-2-ol] | potent agonists
COc1cc(F)ccc1C(C)(C)CC(O)(Cc1cc2cc(N(C)C)ncc2[nH]1)C(F)(F)F (centres unmarked) [2-(5-Dimethylamino-1H-pyrrolo[2,3-c]pyridin-2-ylmethyl)-1,1,1-trifluoro-4-(4-fluoro-2-methoxyphenyl)-4-methylpentan-2-ol] | potent agonists
COc1ccc(F)cc1C(C)(C)CC(O)(Cc1cc2cc(N(C)C)ncc2[nH]1)C(F)(F)F (centres unmarked) [2-(5-Dimethylamino-1H-pyrrolo[2,3-c]pyridin-2-ylmethyl)-1,1,1-trifluoro-4-(5-fluoro-2-methoxyphenyl)-4-methylpentan-2-ol] | potent agonists
CN(C)c1cc2cc(CC(O)(CC(C)(C)c3ccccc3)C(F)(F)F)[nH]c2cn1 (centres unmarked) [2-(5-Dimethylamino-1H-pyrrolo[2,3-c]pyridin-2-ylmethyl)-1,1,1-trifluoro-4-methyl-4-phenylpentan-2-ol] | potent agonists
CCOc1cc2cc(CC(O)(CC(C)(C)c3cc(F)ccc3C)C(F)(F)F)[nH]c2cn1 (centres unmarked) [2-(5-Ethoxy-1H-pyrrolo[2,3-c]pyridin-2-ylmethyl)-1,1,1-trifluoro-4-(5-fluoro-2-methylphenyl)-4-methylpentan-2-ol] | potent agonists
CCC(C)(C)C(O)(Cc1cc2ccncc2[nH]1)CC(C)(C)c1cc(F)ccc1OC (centres unmarked) [2-(5-Fluoro-2-methoxyphenyl)-2,5,5-trimethyl-4-(1H-pyrrolo[2,3-c]pyridin-2-ylmethyl)heptan-4-ol] | agonists
COc1ccc(F)cc1C(C)(C)CC(O)(Cc1cc2cnccc2[nH]1)C1CC1 (centres unmarked) [2-Cyclopropyl-4-(5-fluoro-2-methoxyphenyl)-4-methyl-1-(1H-pyrrolo[3,2-c]pyridin-2-yl)pentan-2-ol] | agonists
Cc1ccc(F)cc1C(C)(C)CC(O)(Cc1cc2ccncc2[nH]1)C1CC1 (centres unmarked) [2-Cyclopropyl-4-(5-fluoro-2-methylphenyl)-4-methyl-1-(1H-pyrrolo[2,3-c]pyridin-2-yl)pentan-2-ol] | agonists
Cc1ccc(F)cc1C(C)(C)CC(O)(Cc1cc2cnccc2[nH]1)C1CC1 (centres unmarked) [2-Cyclopropyl-4-(5-fluoro-2-methylphenyl)-4-methyl-1-(1H-pyrrolo[3,2-c]pyridin-2-yl)pentan-2-ol] | agonists
Cc1cc(C#N)cc2[nH]c(CC(O)(CC(C)(C)c3cc(S(C)(=O)=O)cc4c3OCC4)C(F)F)cc12 (centres unmarked) [2-[2-Difluoromethyl-2-hydroxy-4-(5-methanesulfonyl-2,3-dihydrobenzofuran-7-yl)-4-methylpentyl]-4-methyl-1H-indole-6-carbonitrile] | agonists
COc1ccc(-c2cncnc2)cc1C(C)(C)CC(O)(Cc1cc2cc(O)ncc2[nH]1)C(F)(F)F (centres unmarked) [2-[2-Hydroxy-4-(2-methoxy-5-pyrimidin-5-ylphenyl)-4-methyl-2-trifluoromethylpentyl]-1H-pyrrolo[2,3-c]pyridin-5-ol] | potent agonists
CC(C)(CC(O)(Cc1cc2cc(C#N)ccc2[nH]1)C(F)(F)F)c1cc(S(C)(=O)=O)cc2c1OCC2 (centres unmarked) [2-[2-Hydroxy-4-(5-methanesulfonyl-2,3-dihydrobenzofuran-7-yl)-4-methyl-2-trifluoromethylpentyl]-1H-indole-5-carbonitrile] | potent agonists
CC(C)(CC(O)(Cc1cc2ccc(C#N)cc2[nH]1)C(F)(F)F)c1cc(S(C)(=O)=O)cc2c1OCC2 (centres unmarked) [2-[2-Hydroxy-4-(5-methanesulfonyl-2,3-dihydrobenzofuran-7-yl)-4-methyl-2-trifluoromethylpentyl]-1H-indole-6-carbonitrile] | potent agonists
Cc1nc(C#N)cc2[nH]c(CC(O)(CC(C)(C)c3cc(S(C)(=O)=O)cc4c3OCC4)C(F)(F)F)cc12 (centres unmarked) [2-[2-Hydroxy-4-(5-methanesulfonyl-2,3-dihydrobenzofuran-7-yl)-4-methyl-2-trifluoromethylpentyl]-4-methyl-1H-pyrrolo[3,2-c]pyridine-6-carbonitrile] | potent agonists
